Tests used:
Type in all cases: cell-based, mouse
[1] = tested on: IRE1 kinase activity; assay: ER stress-induced IRE1 and FMRP phosphorylation in transfected MEFs (western blot); conditions: AMG-18 25 μM 1 hour pre-treatment, TG 600 nM 4 hours
Method: FIGS. 1A-1K depict FMRP is a new inositol-requiring enzyme-1 (IRE1) kinase substrate. A representative blot is shown from at least n=3 independent experiments. Data are mean±SEM. Unpaired 1-test with Welch's correction or paired 1-test. * P≤0.05, ** P≤0.01, *** P≤0.001. • 1A. STING analysis of published IRE1 interactome proteins in relation to FMRP (Acosta-Alvear et al., 2018). • 1B. HEK293T cells were co-transfected with IRE1 and FMRP plasmids and stimulated with TG (600 nM) or TM (1 mg/ml) for 2 hours. Protein lysates were immunoprecipitated (IP) with anti-IRE1 or IgG (control) antibodies and analyzed by Western blotting using specific antibodies for FMRP and IRE1 (n=3). • 1C. RAW 264.7 mouse macrophages were treated with either oxLDL (50 μg/ml) or TG (300 nM) for 6 hours. Protein lysates were treated with λ Phosphatase (PPase) for 30 minutes and analyzed by western blotting using specific antibodies for pFMRP, FMRP, pIRE1, IRE1 and β-Actin. pFMRP/FMRP fold induction is depicted above the blots (n=6). • 1D. […] Protein lysates were analyzed by western blotting using specific antibodies for pFMRP, FMRP, pIRE1, IRE1 and β-Actin. pFMRP/FMRP-fold induction is depicted above the blots (n=5). • 1E. […] Protein lysates were analyzed by western blotting using specific antibodies for pFMRP, FMRP, pIRE1, IRE1 and β-Actin. pFMRP/FMRP fold induction is depicted above the blots (n=4). • 1F. […]

[2] = tested on: macrophages; assay: Cholesterol uptake in macrophages (fluorescently labeled cholesterol); conditions: AMG-18 10 μM 1 hour pre-treatment, labeled cholesterol 4 hours
[3] = tested on: BMDMs; assay: Apoptosis detection by flow cytometry (PI); conditions: AMG-18 10 μM 1 hour pre-treatment, PA 12 hours
Source text: FIGS. 5K-5T depict: (Data are mean #SEM; Mann Whitney U test. * P≤0.05, ** P≤0.01, *** P≤0.001) • 5K. The ratio of mouse weight at the beginning of the experiment over the weight at the end of the experiment in FIG. 5A (n=12-13); and plasma measurements for glucose (n=12-13), cholesterol (n=12-13) and lipoproteins (n=4), respectively, from mice in FIG. 5A. • 5L. Abundance of B cells, T cells and monocytes in the peripheral blood as % of total CD45+ cells from the Fmr1^+/+ and Fmr1^−/− mice in FIG. 5A (n=12-13) . • 5M. Macrophage area was calculated from MOMA-2 (red)-stained aortic root sections as % of MOMA2^+ stained area to total plaque area (n=8; Scale bar=100 μm). • 5N. Apoptosis was calculated from the number of TUNEL^+ cells (green) in the MOMA-2-stained (red) plaque area (n=8; Scale bar=100 μm). • 5O. Fmr1^+/+ and Fmr1^−/− BMDMs or AMG-18 pre-treated cells (10 μM, 1 hour) were treated with PA ([…]) treatment for 12 hours and then stained with Propidium iodide (PI) (n=5). • 5P. % Smooth muscle actin (α-SMA) was calculated from aortic root sections stained with a-SMA (green) as % α-SMA^+ area to the total plaque area (n=8, Scale bar 100 μm). • 5Q. % collagen area was calculated from Masson's Trichrome staining as the percentage of collagen (blue) area in total plaque area (n=8; Scale bar=100 μm). • 5R. […]

Cc1ccc2c(NS(=O)(=O)c3ccccc3Cl)cccc2c1Oc1ncccc1-c1ccnc(N[C@H]2CCCNC2)n1 [AMG-18]
FMRP phosphorylation (pFMRP/FMRP) [1]: clearly reducing
IRE1 phosphorylation [1]: prevented
cholesterol uptake [2]: neither FMRP knock down nor IRE1 kinase inhibition altered
apoptosis (PI staining) [3]: no significant change

From US20250134889A1, “TARGETING IRE1 KINASE AND FMRP FOR PROPHYLAXIS, MANAGEMENT AND TREATMENT OF ATHEROSCLEROSIS” (CEDARS-SINAI MEDICAL CENTER, priority 2022, published 2025)
